# According to patent publication US9388208B2, “Pyrrolo[1,2-f][1,2,4]triazines useful for treating respiratory syncitial virus infections” (Gilead Sciences, Inc., priority 2013, dated 2016):
# pEC50: −log10 of the molar value. Where two headings read alike, the source gives them in different places.
# How the values were obtained:
# RSV strain A2 = assay: Anti-RSV activity, infectious cytopathic cell protection assay in HEp-2 cells; type: cell-based, Respiratory Syncytial Virus (RSV); conditions: human respiratory syncytial virus
# Protocol: Antiviral activity against RSV is determined using an infectious cytopathic cell protection assay in HEp-2 cells. In this assay, compounds inhibiting viral infection and/or replication produce a cytoprotective effect against the virus-induced cell killing that can be quantified using a cell viability reagent. The techniques used here are novel adaptations of methods described in published literature (Chapman et al., Antimicrob Agents Chemother. 2007, 51(9):3346-53.)
# HEp-2 cells are obtained from ATCC (Manassas, VI) and maintained in MEM media supplemented with 10% fetal bovine serum and penicillin/streptomycin. Cells are passaged twice a week and kept at subconfluent stage. Commercial stock of RSV strain A2 (Advanced Biotechnologies, Columbia, Md.) is titered before compound testing to determine the appropriate dilution of the virus stock that generates desirable cytopathic effect in HEp-2 cells.
# For antiviral tests, HEp-2 cells are grown in large cell culture flasks to near confluency but not fully so. The compounds to be tested are prediluted in DMSO in 384-well compound dilution plates, either in an 8 or 40 sample per plate standardized dose response format. 3-fold serial dilution increments of each test compound are prepared in the plates and test samples are transferred via acoustic transfer apparatus (Echo, Labcyte) at 100 nl per well into cell culture assay 384-well plates. Each compound dilution is transferred in single or quadruplicate samples into dry assay plates, which are stored until assay is ready to go. The positive and negative controls are laid out in opposite on ends of the plate in vertical blocks (1 column).
# Subsequently, an infectious mixture is prepared using an appropriate dilution of virus stock previously determined by titration with cells at a density of 50,000/ml and 20 uL/well is added to test plates w/compounds via automation (uFlow, Biotek). Each plate includes negative and positive controls (16 replicates each) to create 0% and 100% virus inhibition standards, respectively. Following the infection with RSV, testing plates are incubated for 4 days in a 37° C. cell culture incubator. After the incubation, a cell viability reagent, Cell TiterGlo (Promega, Madison, Wis.) is added to the assay plates, which are incubated briefly, and a luminescent readout is measured (Envision, Perkin Elmer) in all the assay plates. The RSV-induced cytopathic effect, percentage inhibition, is determined from the levels of remaining cell viability. These numbers are calculated for each tested concentration relative to the 0% and 100% inhibition controls, and the EC50 value for each compound is determined by non-linear regression as a concentration inhibiting the RSV-induced cytopathic effect by 50%. Various potent anti-RSV tool compounds are used as positive controls for antiviral activity.
# [1] = Cytotoxicity assay in HEp-2 cells; type: cell-based; conditions: human, uninfected HEp-2 cells, CellTiter Glo
# Protocol: Cytotoxicity of tested compounds is determined in uninfected HEp-2 cells in parallel with the antiviral activity using the cell viability reagent in a similar fashion as described before for other cell types (Cihlar et al., Antimicrob Agents Chemother. 2008, 52(2):655-65.). The same protocol as for the determination of antiviral activity is used for the measurement of compound cytotoxicity except that the cells are not infected with RSV. Instead, an uninfected cell mixture at the same density is added at 20 ul/well to plates containing prediluted compounds, also at 100 nl/sample. Assay plates are then incubated for 4 days followed by a cell viability test using the same CellTiter Glo reagent addition and measurement of luminescent readouts. Untreated cell and cells treated at 2 uM puromycin (Sigma, St. Louis, Mo.) serve as 100% and 0% cell viability control, respectively. The percent of cell viability is calculated for each tested compound concentration relative to the 0% and 100% controls and the CC50 value is determined by non-linear regression as a compound concentration reducing the cell viability by 50%.
# [2] = Cytotoxicity assay in MT-4 cells; type: cell-based; conditions: human, Cell-Titer Glo
# Protocol: The MT-4 cell line was obtained from the NIH AIDS Research and Reference Reagent Program (Germantown, Md.) and cultured in RPMI-1640 medium (Irvine Scientific, Santa Ana, Calif., Cat #9160) supplemented with 10% FBS, 100 units/mL penicillin, 100 units/mL streptomycin, and 2 mM L-Glutamine. The MT-4 cells were passaged twice per week to maintain cell densities below 0.6×10^6 cells/mL. Complete RPMI-1640 media containing 100× concentrations of 3-fold serially diluted compound, ranging from 26 nM to 530 μM, were stamped in quadruplicate into black 384-well plates. After compound addition, 2×10^3 MT-4 cells were added to each well using a MicroFlo liquid dispenser (BioTek, Winooski, Vt.) and the cells were cultured for 5 days at 37° C. in a 5% CO2 incubator. Following the incubation the cells were allowed to equilibrate to 25° C. and cell viability was determined by adding 25 μL of Cell-Titer Glo viability reagent. The mixture was incubated for 10 minutes at 25° C., and the luminescence signal was quantified on a Victor Luminescence plate reader. The CC50 value is defined as the concentration of compound that reduces cell viability by 50% as determined by the Cell-Titer Glo signal. The data were analyzed using Pipeline Pilot Plate Data Analytics Collection software (Version 7.0, Accelrys, San Diego, Calif.). CC50 values were calculated from a non-linear regression analysis using a 4-parameter sigmoidal dose-response equation: Y=Bottom+(Top−Bottom)/(1+10^[(Log CC50−X)*HillSlope]) where the Top and Bottom were fixed at 100% and 0% cell viability, respectively. CC50 values were calculated as the average±standard deviation of 3 independent experiments.
# [3] = 96 h, HEp-2 cells infected with RSV A2, 4 days, Cell TiterGlo, read-out: EC50
# [4] = HEp-2 anti-RSV activity, read-out: EC50 (HEp-2 anti-RSV activity)
SMILES,"pEC50 (RSV strain A2; HEp-2, 96 h)",CC50 at 4 days [1],CC50 at 5 days [2],pEC50 (RSV strain A2; [3]),pEC50 (RSV strain A2; [4])
"CC(C)(C)C(=O)SCCOP(=O)(OCCSC(=O)C(C)(C)C)OC[C@@]1(C#N)O[C@@H](c2ccc3c(N)ncnn23)[C@H](F)[C@@H]1O [Example 11, S,S′-2,2′-((((2R,3R,4R,5S)-5-(4-aminopyrrolo[1,2-f][1,2,4]triazin-7-yl)-2-cyano-4-fluoro-3-hydroxytetrahydrofuran-2-yl)methoxy)phosphoryl)bis(oxy)bis(ethane-2,1-diyl)bis(2,2-dimethylpropanethioate)]",5.92,42 µM,19.7 µM,,
"C=C[C@]1(COP(=O)(OCCSC(=O)C(C)(C)C)OCCSC(=O)C(C)(C)C)O[C@@H](c2ccc3c(N)ncnn23)[C@H](F)[C@@H]1O [Example 15, S,S′-2,2′-((((2R,3R,4R,5S)-5-(4-aminopyrrolo[1,2-f][1,2,4]triazin-7-yl)-4-fluoro-3-hydroxy-2-vinyltetrahydrofuran-2-yl)methoxy)phosphoryl)bis(oxy)bis(ethane-2,1-diyl)bis(2,2-dimethylpropanethioate)]",5.80,35 µM,7.9 µM,,
"N#C[C@]1(CO)O[C@@H](c2cc(F)c3c(N)ncnn23)[C@H](O)[C@@H]1O [Example 25, (2R,3S,4R,5S)-5-(4-amino-5-fluoropyrrolo[2,1-f][1,2,4]triazin-7-yl)-3,4-dihydroxy-2-(hydroxymethyl)tetrahydrofuran-2-carbonitrile]",,> 100 µM,> 93 µM,5.04,
"N#C[C@]1(CO)O[C@@H](c2cc(F)c3c(N)ncnn23)[C@H](F)[C@@H]1O [Example 23, (2R,3R,4R,5S)-5-(4-amino-5-fluoropyrrolo[2,1-f][1,2,4]triazin-7-yl)-4-fluoro-3-hydroxy-2-(hydroxymethyl)tetrahydrofuran-2-carbonitrile]",,72 µM,21 µM,4.63,> 4.00
"C=C[C@]1(CO)O[C@@H](c2ccc3c(N)ncnn23)[C@H](O)[C@@H]1O [Example 20, (2R,3S,4R,5S)-5-(4-aminopyrrolo[2,1-f][1,2,4]triazin-7-yl)-2-(hydroxymethyl)-2-vinyltetrahydrofuran-3,4-diol]",,> 50 µM,> 53 µM,< 4.30,
"CCC(CC)COC(=O)[C@H](C)NP(=O)(OC[C@@]1(C#N)O[C@@H](c2ccc3c(N)ncnn23)C(F)C1O)Oc1ccccc1 (stereo partly drawn) [Example 12, (2S)-2-ethylbutyl 2-((((2R,3R,4R,5S)-5-(4-aminopyrrolo[1,2-f][1,2,4]triazin-7-yl)-2-cyano-4-fluoro-3-hydroxytetrahydrofuran-2-yl)methoxy)(phenoxy)phosphorylamino)propanoate]",5.52,> 50 µM,27 µM,,
"Nc1ncnn2c([C@@H]3O[C@H](CO)[C@@H](O)[C@H]3O)ccc12 [(2S,3R,4S,5R)-2-(4-aminopyrrolo[1,2-t][1,2,4]triazin-7-yl)-5-(hydroxymethyl)tetrahydrofuran-3,4-diol, reference compound]",,,0.007 µM,,
"C#C[C@]1(CO)O[C@@H](c2ccc3c(N)ncnn23)[C@H](F)[C@@H]1O [Example 2, (2R,3R,4R,5S)-5-(4-aminopyrrolo[1,2-f][1,2,4]triazin-7-yl)-2-ethynyl-4-fluoro-2-(hydroxymethyl)tetrahydrofuran-3-ol]",,> 100 µM,> 106 µM,5.02,> 4.00
"N#C[C@]1(CO)O[C@@H](c2ccc3c(N)ncnn23)[C@H](F)[C@@H]1O [Example 3, (2R,3R,4R,5S)-5-(4-aminopyrrolo[1,24][1,2,4]triazin-7-yl)-4-fluoro-3-hydroxy-2-(hydroxymethyl)tetrahydrofuran-2-carbonitrile]",,> 100 µM,> 106 µM,5.70,> 4.00
"[N-]=[N+]=N[C@]1(CO)O[C@@H](c2ccc3c(N)ncnn23)[C@H](O)[C@@H]1O [Example 5, (2R,3S,4R,5S)-5-(4-aminopyrrolo[1,2-f][1,2,4]triazin-7-yl)-2-azido-2-(hydroxymethyl)tetrahydrofuran-3,4-diol]",,> 50 µM,> 53 µM,5.68,
"CCOC(=O)[C@H](C)NP(=O)(OC[C@@]1(C#N)O[C@@H](c2ccc3c(N)ncnn23)[C@H](O)[C@@H]1O)Oc1ccccc1 (stereo partly drawn) [Example 35, (2S)-ethyl 2-(((((2R,3S,4R,5S)-5-(4-aminopyrrolo[2,1-f][1,2,4]triazin-7-yl)-2-cyano-3,4-dihydroxytetrahydrofuran-2-yl)methoxy)(phenoxy)phosphoryl)amino) propanoate]",6.47,> 50 µM,47 µM,,
"CC[C@]1(CO)O[C@@H](c2ccc3c(N)ncnn23)[C@H](F)[C@@H]1O [Example 14, (2R,3R,4R,5S)-5-(4-aminopyrrolo[1,24][1,2,4]triazin-7-yl)-2-ethyl-4-fluoro-2-(hydroxymethyl)tetrahydrofuran-3-ol]",,> 100 µM,> 106 µM,4.40,> 4.00
"C[C@]1(CO)O[C@@H](c2ccc3c(N)ncnn23)[C@H](F)[C@@H]1O [Example 24, (2R,3R,4R,5S)-5-(4-aminopyrrolo[2,1-f][1,2,4]triazin-7-yl)-4-fluoro-2-(hydroxymethyl)-2-methyltetrahydrofuran-3-ol]",,> 100 µM,11 µM,6.00,> 4.00
"[N-]=[N+]=N[C@]1(CO)O[C@@H](c2ccc3c(N)ncnn23)[C@H](F)[C@@H]1O [Example 19, (2R,3R,4R,5S)-5-(4-aminopyrrolo[2,1-f][1,2,4]triazin-7-yl)-2-azido-4-fluoro-2-(hydroxymethyl)tetrahydrofuran-3-ol]",,> 44 µM,16 µM,6.40,> 4.00
"Nc1ncnn2c([C@@H]3O[C@H](CO)[C@@H](O)[C@H]3F)ccc12 [(2R,3R,4R,5S)-5-(4-aminopyrrolo[1,2-f][1,2,4]triazin-7-yl)-4-fluoro-2-(hydroxymethyl)tetrahydrofuran-3-ol, reference compound]",,,30 µM,< 4.00,
